Test results taken from US20160008490A1, “METAL CHELATE COMPOUNDS FOR BINDING TO THE PLATELET SPECIFIC GLYCOPROTEIN IIB/IIIA” (BAYER PHARMA AKTIENGESELLSCHAFT, priority 2013, published 2016).

Target: T1, human GP IIb/IIIa receptor (Homo sapiens, UniProt P05106+P08514)
T1 construct: human GPIIb/IIIa purified from human platelets was immobilized on a 96-well solid plate; purchased Enzyme Research Laboratories Inc. (South Bend, Ind.); host or cells: human platelets (natural source, detergent-solubilised)
T1 sequence (P08514 32-887 limits assumed): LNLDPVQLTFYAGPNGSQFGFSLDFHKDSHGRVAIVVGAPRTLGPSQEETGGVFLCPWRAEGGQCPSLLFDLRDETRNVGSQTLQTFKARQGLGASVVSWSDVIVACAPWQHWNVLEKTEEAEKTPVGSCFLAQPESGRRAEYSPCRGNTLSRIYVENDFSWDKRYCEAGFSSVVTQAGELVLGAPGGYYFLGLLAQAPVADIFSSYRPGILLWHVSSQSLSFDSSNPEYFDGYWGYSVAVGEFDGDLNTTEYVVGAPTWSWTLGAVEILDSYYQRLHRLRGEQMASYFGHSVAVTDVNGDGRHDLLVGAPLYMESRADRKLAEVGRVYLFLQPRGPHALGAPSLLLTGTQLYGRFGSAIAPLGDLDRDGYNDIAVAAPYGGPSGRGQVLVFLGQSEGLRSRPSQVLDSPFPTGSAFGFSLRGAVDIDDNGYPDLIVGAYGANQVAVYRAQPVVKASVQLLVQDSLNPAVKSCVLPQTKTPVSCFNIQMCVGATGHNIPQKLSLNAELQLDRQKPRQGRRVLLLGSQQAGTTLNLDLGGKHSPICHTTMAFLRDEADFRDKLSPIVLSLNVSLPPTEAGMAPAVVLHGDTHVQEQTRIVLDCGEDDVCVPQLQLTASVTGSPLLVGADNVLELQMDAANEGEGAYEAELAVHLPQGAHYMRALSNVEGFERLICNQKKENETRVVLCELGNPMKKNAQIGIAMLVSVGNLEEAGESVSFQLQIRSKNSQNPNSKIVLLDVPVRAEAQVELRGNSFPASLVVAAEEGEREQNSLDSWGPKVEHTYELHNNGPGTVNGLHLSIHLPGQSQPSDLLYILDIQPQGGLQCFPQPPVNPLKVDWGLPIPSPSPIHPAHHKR
T1 sequence (P08514 891-1039 partner limits assumed): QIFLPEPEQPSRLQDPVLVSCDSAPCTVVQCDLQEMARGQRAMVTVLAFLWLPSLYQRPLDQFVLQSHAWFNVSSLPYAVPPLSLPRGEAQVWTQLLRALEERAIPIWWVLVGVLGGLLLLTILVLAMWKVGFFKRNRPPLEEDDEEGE
T1 sequence (P05106 27-788): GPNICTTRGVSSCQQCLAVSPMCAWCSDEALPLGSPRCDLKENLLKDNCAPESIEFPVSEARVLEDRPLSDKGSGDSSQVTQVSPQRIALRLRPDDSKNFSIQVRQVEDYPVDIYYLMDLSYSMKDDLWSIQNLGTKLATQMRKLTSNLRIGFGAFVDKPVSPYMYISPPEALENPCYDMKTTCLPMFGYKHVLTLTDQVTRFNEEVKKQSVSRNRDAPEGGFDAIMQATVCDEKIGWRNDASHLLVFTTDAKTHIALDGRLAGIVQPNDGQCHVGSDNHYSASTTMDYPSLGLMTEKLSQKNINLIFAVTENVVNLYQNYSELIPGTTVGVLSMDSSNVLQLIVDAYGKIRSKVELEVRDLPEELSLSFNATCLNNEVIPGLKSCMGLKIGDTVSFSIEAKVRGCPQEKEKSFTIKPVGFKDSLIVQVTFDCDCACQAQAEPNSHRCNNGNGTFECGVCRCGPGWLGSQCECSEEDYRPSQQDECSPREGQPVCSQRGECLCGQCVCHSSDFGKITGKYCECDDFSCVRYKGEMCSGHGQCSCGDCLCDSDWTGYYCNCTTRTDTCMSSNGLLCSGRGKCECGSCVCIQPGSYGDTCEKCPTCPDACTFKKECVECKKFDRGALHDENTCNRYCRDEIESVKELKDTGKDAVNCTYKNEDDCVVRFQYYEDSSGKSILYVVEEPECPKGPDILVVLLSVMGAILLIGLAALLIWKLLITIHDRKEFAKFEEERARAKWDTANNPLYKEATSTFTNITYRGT
Assay: GPIIb/IIIa affinity assay (displacement of tritiated reference compound from immobilized receptor)
Format: binding
Conditions: purified human GPIIb/IIIa, 60 nM 3H-labeled reference compound, 1 hour at room temperature
Protocol: Affinity assay: In the first step human GPIIb/IIIa purified from human platelets was immobilized on a 96-well solid plate. After 48 hours the plates were washed and the unspecific binding sites were blocked with Roti®-Block. 2. In the next step, the plates were simultaneously incubated with a tritium labeled known GPIIb/IIIa binder (^3H) mixed with increasing concentrations of the novel compounds (inhibitor). The higher the affinity of the inhibitor, the lower the bound fraction of the tritiated known GPIIb/IIIa binder (^3H) was. The fraction of tritiated compound (^3H), which is not displaced by inhibitor, was measured in a microplate scintillation counter.
Purified human glycoprotein IIb/IIIa (20 mM Tris-HCl, 0.1 M NaCl, 0.1% Triton X-100, 1 mM CaCl2, 0.05% NaN3, 50% Glycerol, pH 7.4) was purchased from Enzyme Research Laboratories Inc. (South Bend, Ind.). The GPIIb/IIIa receptor was diluted in phosphate-buffered saline (Dulbecco's Phosphate Buffered Saline (D-PBS (+)) with calcium and magnesium, GIBCO®, Invitrogen) with 0.01% bovine serum albumin (albumin from bovine serum—lyophilized powder, 96%, Sigma).
The GPIIb/IIIa receptor was immobilized 48 hours at least (100 μL per well, 48 to maximum 96 hours) on a 96-well solid plate (Immuno Plate MaxiSorp™, Nunc, Roskilde, Denmark) at 277 K to 280 K and at a concentration of 0.1 μg per well to 1 μg per well. As negative control one row of the plate (n=8) was incubated just with 2% bovine serum albumin (200 μL per well, albumin from bovine serum—lyophilized powder, ≧96%, Sigma, diluted in D-PBS (+)).
After washing three times with the wash buffer (230 μL per well, Dulbecco's Phosphate Buffered Saline (D-PBS (−)) contains no calcium or magnesium, GIBCO®, Invitrogen) residual exposed plastic and unspecific binding sites were blocked by incubating the plate with a special blocking solution (200 μL per well, Roti®-Block, Car Roth GmbH Co KG, Karlsruhe) containing 2% bovine serum albumin (Albumin from bovine serum—lyophilized powder, ≧96%, Sigma) 1 hour at room temperature.
After washing three times with the wash buffer 50 μL of tritiated reference compound (60 nM, ^3H-labeled compound) and 50 μL of novel compound (inhibitor) were simultaneously added to each well and incubated for 1 hour at room temperature. Several concentrations of each novel inhibitor (0.1, 1, 2, 5, 10, 20 50, 100, 200, 500, 1000, 2000, 5000, 10000 and 20000 nM) were investigated. At each concentration of inhibitor a fourfold determination was performed.
The maximum value of tritiated reference compound was determined without addition of inhibitor (n=8). To exclude unspecific binding of ^3H— reference compound wells without glycoprotein receptors were used as negative controls (n=12, identically treated just without GPIIb/IIIa receptors).
After one hour the plate was washed three times with phosphate-buffered saline (200 μL per well, Dulbecco's Phosphate Buffered Saline (D-PBS (+)), GIBCO®, Invitrogen). Following 140 μL of liquid scintillation cocktail (MicroScint™ 40 aqueous, Perkin Elmer) was added to each well. After 15 min at room temperature the plates were measured at the microplate scintillation counter (TopCount NXT v2.13, Perkin Elmer, Packard Instrument Company).
In the first step human glycoprotein IIb/IIIa, which is purified from human platelets, was immobilized on a 96-well solid plate. After 48 hours at least the plates were washed and the unspecific binding sites were blocked with Roti®-Block. In the next step, the plates were simultaneously incubated with a tritium labeled reference compound and the novel small molecule compound (inhibitor). The higher the affinity of the inhibitor, the smaller is the bound fraction of reference compound. The fraction of tritiated reference compound, which is not displaced by inhibitor, was measured at a microplate scintillation counter. The higher the affinity of the inhibitor, the smaller is the bound fraction of tritium-labeled reference compound. […]

How did the IC50 turn out when `CC(C(=O)NCC(=O)NC[C@H](NC(=O)CNC(=O)C(C)N1CCN(CC(=O)O)CCN(CC(=O)O)CCN(CC(=O)O)CC1)C(=O)NC[C@H](NC(=O)[C@H](CNC(=O)CNC(=O)C(C)N1CCN(CC(=O)O)CCN(CC(=O)O)CCN(CC(=O)O)CC1)NC(=O)CNC(=O)C(C)N1CCN(CC(=O)O)CCN(CC(=O)O)CCN(CC(=O)O)CC1)C(=O)NCCCCc1cccc(C#Cc2cncc([C@H](CC(=O)O)NC(=O)[C@@H]3CCCN(C(=O)CCC4CCNCC4)C3)c2)c1)N1CCN(CC(=O)O)CCN(CC(=O)O)CCN(CC(=O)O)CC1` (stereo partly shown) [Example 8] was run?
The IC50 was 21 nM.
